Columns and labels:
human AML MV-4-11 cells = assay: Inhibition of cell proliferation in MV4-11 cells (CellTiter Aqueous One); assay type: cell-based; settings: for Cell Proliferation activity: 72 h; for IC50: MV4-11, 72 h
How it was run: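 IC50 values come from blank-corrected proliferation relative to DMSO controls, read as 490 nm absorbance 3–4 h after CellTiter Aqueous One addition. Before that, cells seeded at 5×10^4/well were exposed for 72 h (37° C, 5% CO2) to triplicate two-fold compound dilutions spanning 30–0.2 μM.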

[1] = biological target: T1, Brd4 bromodomain 1 (BRD4(1)) (Homo sapiens, UniProt O60885); assay: Inhibition of tetra-acetylated histone H4 binding to Brd4 bromodomain 1 (TR-FRET); settings: tetra-acetylated histone H4 peptide, first bromodomain of Brd4
T1 construct: made in house; host or cells: E. coli BL21(DE3)
How it was run: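 Serially diluted compound (0.2% DMSO) incubated 2 h at room temperature with 200 nM N-His BRD4 bromodomain 1 and 25-50 nM biotinylated tetra-acetyl H4 peptide, detected via Eu-streptavidin/XL665 anti-His. Loss of 665 nm relative to 620 nm signal gave IC50 from dose-response.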

hIL-6 mRNA = assay: Inhibition of hIL-6 mRNA transcription in LPS-stimulated U937 cells; assay type: cell-based; settings: Homo sapiens, U-937; PMA-differentiated U937 cells, 1 h pretreatment, 1 ug/mL LPS stimulation, 3 h; read-out: IL-6 activity (Inhibition of hIL-6 mRNA Transcription)
Experimental: In this example, hIL-6 mRNA in tissue culture cells was quantitated to measure the transcriptional inhibition of hIL-6 when treated with a compound of the invention.
Human leukemic monocyte lymphoma U937 cells (CRL-1593.2) were plated at a density of 3.2×10^4 cells per well in a 96-well plate in 100 μL RPMI-1640 containing 10% FBS and penicillin/streptomycin, and differentiated into macrophages for 3 days in 60 ng/mL PMA ([…]) at 37° C. in 5% CO2 prior to the addition of compound. The cells were pretreated for 1 h with increasing concentrations of test compound in 0.1% DMSO prior to stimulation with 1 ug/mL lipopolysaccharide from Escherichia coli. Triplicate wells were used for each concentration. The cells were incubated at 37° C., 5% CO2 for 3 h before the cells were harvested. At time of harvest, media was removed and cells were rinsed in 200 μL PBS. Cells were harvested using the mRNA Catcher PLUS kit according to manufacturer's instructions. The eluted mRNA was then used in a one-step quantitative real-time PCR reaction using components of the RNA UltraSense™ One-Step Kit (Life Technologies) together with Applied Biosystems TaqMan® primer-probes for hIL-6 and Cyclophilin. Real-time PCR plates were run on a VIa™ 7 real time PCR machine (Applied Biosystems), data was analyzed, normalizing the Ct values for hIL-6 to an internal control, prior to determining the fold expression of each sample, relative to the control.

c-myc = assay: Inhibition of c-myc expression (mRNA, real-time PCR) in MV4-11 cells; assay type: cell-based; settings: Human AML MV4-11 cells, 3 h, cMYC mRNA
Experimental: MV4-11 cells (CRL-9591) were plated at a density of 2.5×10^4 cells per well in 96 well U-bottom plates and treated with increasing concentrations of test compound or DMSO (0.1%) in IMDM media containing 10% FBS and penicillin/streptomycin, and incubated for 3 h at 37° C. Triplicate wells were used for each concentration. Cells were pelleted by centrifugation and harvested using the mRNA Catcher PLUS kit according to manufacturer's instructions. The eluted mRNA isolated was then used in a one-step quantitative real-time PCR reaction, using components of the RNA UltraSense™ One-Step Kit (Life Technologies) together with Applied Biosystems TaqMan® primer-probes for cMYC and Cyclophilin. Real-time PCR plates were run on a VIaTM7 real time PCR machine (Applied Biosystems), data was analyzed, normalizing the Ct values for cMYC to an internal control, prior to determining the fold expression of each sample, relative to the control.

SMILES	IC50 [1] [nM]	IC50 (hIL-6 mRNA) [nM]	IC50 (human AML MV-4-11 cells) [nM]	IC50 (c-myc) [nM]	Cell Proliferation activity (human AML MV-4-11 cells)
Cc1noc(C)c1-c1nc(N)c2ncn(Cc3ccccc3)c2n1 [Example Compound 1, 9-Benzyl-2-(3,5-dimethylisoxazol-4-yl)-9H-purin-6-amine]	300 to 3000	300 to 3000			Not active
Cc1noc(C)c1-c1ccc2ncc(=O)n(Cc3ccccc3)c2c1 [Example Compound 11, 1-Benzyl-7-(3,5-dimethylisoxazol-4-yl)quinoxalin-2(1H)-one]	≤ 300	300 to 3000			Not active
Cc1noc(C)c1-c1cc2c(ccn2Cc2ccccc2)[nH]c1=O [Example Compound 56, 1-benzyl-6-(3,5-dimethylisoxazol-4-yl)-1H-pyrrolo[3,2-b]pyridin-5(4H)-one]	300 to 3000	3000 to 30000			
CC(=O)Nc1cc(-c2c(C)noc2C)cc2c1n(C)c(=O)n2Cc1ccccc1 [compound 164, N-(1-benzyl-6-(3,5-dimethylisoxazol-4-yl)-3-methyl-2-oxo-2,3-dihydro-1H-benzo[d]imidazol-4-yl)acetamide]	≤ 300	≤ 300			
Cc1noc(C)c1-c1cc(N2CCOCC2)c2nc(C)n(Cc3ccccc3)c2c1 [compound 182, 4-(1-benzyl-6-(3,5-dimethylisoxazol-4-yl)-2-methyl-1H-benzo[d]imidazol-4-yl)morpholine]	≤ 300		300 to 3000	300 to 3000	
Cc1noc(C)c1-c1cc(N2CCC2=O)c2nc(C)n(Cc3ccccc3)c2c1 [compound 183, 1-(1-benzyl-6-(3,5-dimethylisoxazol-4-yl)-2-methyl-1H-benzo[d]imidazol-4-yl)azetidin-2-one]	≤ 300		3000 to 30000	300 to 3000	
Cc1noc(C)c1-c1cnc2nc(NCc3cccnc3)n(Cc3ccccc3)c2c1 [compound 185, 1-benzyl-6-(3,5-dimethylisoxazol-4-yl)-N-(pyridin-3-ylmethyl)-1H-imidazo[4,5-b]pyridin-2-amine]	≤ 300		≤ 300	≤ 300	
Cc1noc(C)c1-c1cc(Br)c2nc(C)n(CCc3ccccc3)c2c1 [compound 186, 4-(4-bromo-2-methyl-1-phenethyl-1H-benzo[d]imidazol-6-yl)-3,5-dimethylisoxazole]	≤ 300			3000 to 30000	Not active
Cc1noc(C)c1-c1cnc2nc(C)n(CC3CCCCC3)c2c1 [compound 191, 4-(1-(cyclohexylmethyl)-2-methyl-1H-imidazo[4,5-b]pyridin-6-yl)-3,5-dimethylisoxazole]	≤ 300		300 to 3000	≤ 300	
Cc1noc(C)c1-c1cnc2nc(C)n(CC3CCCC3)c2c1 [compound 192, 4-(1-(cyclopentylmethyl)-2-methyl-1H-imidazo[4,5-b]pyridin-6-yl)-3,5-dimethylisoxazole]	≤ 300		300 to 3000	300 to 3000	
Cc1noc(C)c1-c1cnc2nc(C)n(CC3CCC3)c2c1 [compound 193, 4-(1-(cyclobutylmethyl)-2-methyl-1H-imidazo[4,5-b]pyridin-6-yl)-3,5-dimethylisoxazole]	≤ 300		300 to 3000	300 to 3000	
Cc1noc(C)c1-c1cnc2nc(NCc3ccccn3)n(Cc3ccccc3)c2c1 [compound 194, 1-benzyl-6-(3,5-dimethylisoxazol-4-yl)-N-(pyridin-2-ylmethyl)-1H-imidazo[4,5-b]pyridin-2-amine]	≤ 300		≤ 300	≤ 300	
Cc1noc(C)c1-c1cnc2nc(N3CCCC3)n(Cc3ccccc3)c2c1 [compound 195, 4-(1-benzyl-2-(pyrrolidin-1-yl)-1H-imidazo[4,5-b]pyridin-6-yl)-3,5-dimethylisoxazole]	≤ 300		≤ 300	≤ 300	
Cc1noc(C)c1-c1cnc2nc(NCCO)n(Cc3ccccc3)c2c1 [compound 196, 2-((1-benzyl-6-(3,5-dimethylisoxazol-4-yl)-1H-imidazo[4,5-b]pyridin-2-yl)amino)ethanol]	≤ 300		300 to 3000	≤ 300	
Cc1noc(C)c1-c1cc(N2CC(O)C2)c2nc(C)n(Cc3ccccc3)c2c1 [compound 197, 1-(1-benzyl-6-(3,5-dimethylisoxazol-4-yl)-2-methyl-1H-benzo[d]imidazol-4-yl)azetidin-3-ol]	≤ 300		≤ 300	≤ 300	
Cn1nccc1-c1cc([N+](=O)[O-])c2c(c1)n(Cc1ccccc1)c(=O)n2C [compound 198, 1-benzyl-3-methyl-6-(1-methyl-1H-pyrazol-5-yl)-4-nitro-1H-benzo[d]imidazol-2(3H)-one]	≤ 300		3000 to 30000	3000 to 30000	

The next lines start with results.

IC50 [1] [nM]	IC50 (hIL-6 mRNA) [nM]	IC50 (human AML MV-4-11 cells) [nM]	IC50 (c-myc) [nM]	SMILES	Cell Proliferation activity (human AML MV-4-11 cells)
≤ 300		300 to 3000	300 to 3000	Cn1nccc1-c1cc(N)c2c(c1)n(Cc1ccccc1)c(=O)n2C [compound 199, 4-amino-1-benzyl-3-methyl-6-(1-methyl-1H-pyrazol-5-yl)-1H-benzo[d]imidazol-2(3H)-one]	
≤ 300		300 to 3000	300 to 3000	Cc1oncc1-c1cc(N)c2nc(C)n(Cc3ccccc3)c2c1 [compound 201, 1-benzyl-2-methyl-6-(5-methylisoxazol-4-yl)-1H-benzo[d]imidazol-4-amine]	
≤ 300		300 to 3000	300 to 3000	Cc1noc(C)c1-c1cnc2[nH]c(=O)n(CC3CCCC3)c2c1 [compound 202, 1-(cyclopentylmethyl)-6-(3,5-dimethylisoxazol-4-yl)-1H-imidazo[4,5-b]pyridin-2(3H)-one]	
≤ 300		3000 to 30000	3000 to 30000	Cc1noc(C)c1-c1cnc2[nH]c(=O)n(CC3CCC3)c2c1 [compound 203, 1-(cyclobutylmethyl)-6-(3,5-dimethylisoxazol-4-yl)-1H-imidazo[4,5-b]pyridin-2(3H)-one]	
≤ 300		300 to 3000	300 to 3000	COc1ccc(CNc2nc3ncc(-c4c(C)noc4C)cc3n2Cc2ccccc2)cc1 [compound 205, 1-benzyl-6-(3,5-dimethylisoxazol-4-yl)-N-(4-methoxybenzyl)-1H-imidazo[4,5-b]pyridin-2-amine]	
≤ 300		300 to 3000	300 to 3000	Cc1noc(C)c1-c1cnc2nc(N3CCOCC3)n(CC3CCC3)c2c1 [compound 210, 4-(1-(cyclobutylmethyl)-6-(3,5-dimethylisoxazol-4-yl)-1H-imidazo[4,5-b]pyridin-2-yl)morpholine]	
≤ 300		300 to 3000	300 to 3000	Cc1noc(C)c1-c1cnc2nc(NCCN(C)C)n(Cc3ccccc3)c2c1 [compound 212, N1-(1-benzyl-6-(3,5-dimethylisoxazol-4-yl)-1H-imidazo[4,5-b]pyridin-2-yl)-N2,N2-dimethylethane-1,2-diamine]	
≤ 300		300 to 3000	300 to 3000	Cc1noc(C)c1-c1cnc2nc(N3CCNCC3)n(Cc3ccccc3)c2c1 [compound 213, 4-(1-benzyl-2-(piperazin-1-yl)-1H-imidazo[4,5-b]pyridin-6-yl)-3,5-dimethylisoxazole]	
300 to 3000		300 to 3000	300 to 3000	Cc1noc(C)c1-c1cnc2[nH]c(=O)n([C@@H](C)c3ccccc3)c2c1 [compound 219, (S)-6-(3,5-dimethylisoxazol-4-yl)-1-(1-phenylethyl)-1H-imidazo[4,5-b]pyridin-2(3H)-one]	
≤ 300		≤ 300	≤ 300	Cc1noc(C)c1-c1cnc2nc(NC3CCOCC3)n(CC3CCCC3)c2c1 [compound 222, 1-(cyclopentylmethyl)-6-(3,5-dimethylisoxazol-4-yl)-N-(tetrahydro-2H-pyran-4-yl)-1H-imidazo[4,5-b]pyridin-2-amine]	
